Measured values from US20060004428A1, “Pyrrolo (3,4-c) carbazole and pyrido (2,3-b) pyrrolo (3,4-e) indole derivatives, preparation method and pharmaceutical compositions containing same” (priority 2002, published 2006).

Tests used:
L1210 murine leukaemia = test: In vitro cytotoxicity, Microculture Tetrazolium Assay, L1210; type: cell-based; conditions: Mus musculus, exposure 4 doubling periods, or 48 hours, read-out: IC50, the concentration of cytotoxic agent which inhibits the proliferation of the treated cells by 50%
Protocol: (§1) Four cell lines were used: • L1210 murine leukaemia • A549 human non-small-cell lung carcinoma • HT29 human colon carcinoma • DU145 prostate carcinoma
(§2) L1210 murine leukaemia was used in vitro. The cells are cultured in RPMI 1640 complete culture medium containing 10% foetal calf serum, 2 mM glutamine, 50 units/ml of penicillin, 50 μg/ml of streptomycin and 10 mM Hepes, pH: 7.4. The cells are distributed on microplates and are exposed to the cytotoxic compounds for 4 doubling periods, or 48 hours. The number of viable cells is then quantified by a calorimetric assay, the Microculture Tetrazolium Assay (J. Carmichael et al., Cancer Res.; 47, 936-942 (1987)). The results are expressed as the IC50, the concentration of cytotoxic agent which inhibits the proliferation of the treated cells by 50%.

[1] = tested on: A549 human non-small-cell lung carcinoma; test: In vitro cytotoxicity, Microculture Tetrazolium Assay, A549; type: cell-based; conditions: read-out: IC50, the concentration of cytotoxic agent which inhibits the proliferation of the treated cells by 50%
Protocol: as §1, §2

[2] = tested on: HT29 human colon carcinoma; test: In vitro cytotoxicity, Microculture Tetrazolium Assay, HT29; type: cell-based; conditions: HT-29, read-out: IC50, the concentration of cytotoxic agent which inhibits the proliferation of the treated cells by 50%
Protocol: as §1, §2

DU145 prostate carcinoma = test: In vitro cytotoxicity, Microculture Tetrazolium Assay, DU145; type: cell-based; conditions: Homo sapiens, DU-145, read-out: IC50, the concentration of cytotoxic agent which inhibits the proliferation of the treated cells by 50%
Protocol: as §1, §2

SMILES	melting point [°C]	further results
CN1C(=O)C2c3c([nH]c4ncccc34)-c3nccn3C2C1=O (stereo not shown) [Example 19, 6-Methyl-7a,12-dihydroimidazo[1,2-a]pyrido[3′,2′:4,5]pyrrolo[2,3-c]-pyrrolo[3,4-e]pyridine-5,7(4aH,6H)-dione]	222 to 224	
O=C1NC(=O)c2c1c1c3cc(Br)ccc3[nH]c1c1cccn21 [Example 7, 11-Bromopyrrolo[3′,4′:5,6]indolizino[8,7-b]indole-1,3(2H,8H)-dione]	> 300	
CN1C(=O)c2c(n3cccc3c3[nH]c4ccccc4c23)C1=O [Example 2, 2-Methylpyrrolo[3′,4′:5,6]indolizino[8,7-b]indole-1,3(2H,8H)dione]	226 to 228	
CN1C(=O)c2c(n3cccc3c3[nH]c4ccc(Br)cc4c23)C1=O [Example 8, 11-Bromo-2-methylpyrrolo[3′,4′:5,6]indolizino[8,7-b]indole-1,3(2H,8H)-dione]	> 300	
O=C1NC(=O)c2c1c1c3ccccc3[nH]c1c1cccn21 [Example 1, Pyrrolo[3′,4′:5,6]indolizino[8,7-b]indole-1,3(2H,8H)dione]	218 to 220	IC50 (L1210 murine leukaemia): 3.1 µM; IC50 [1]: 1.99 µM; IC50 [2]: 3.3 µM; IC50 (DU145 prostate carcinoma): 1.4 µM
O=C1NC(=O)c2c1c1c3cc(Cl)ccc3[nH]c1c1cccn21 [Example 9, 11-Chloropyrrolo[3′,4′:5,6]indolizino[8,7-b]indole-1,3(2H,8H)-dione]	298 to 304	
CC(=O)OC[C@H]1O[C@@H](n2c3ncccc3c3c4c(n5cncc5c32)C(=O)N(C)C4=O)[C@H](OC(C)=O)[C@@H](OC(C)=O)[C@@H]1OC(C)=O [Example 21, 2-Methyl-8-(2,3,4,6-tetra-O-acetyl-β-D-glucopyranosyl)-imidazo-[1,5-a]pyrido[3′,2′:4,5]pyrrolo[2,3-c]pyrrolo[3,4-e]pyridine-1,3(2H,8H)-dione]	204	
CN1C(=O)c2c(n3cncc3c3[nH]c4ncccc4c23)C1=O [Example 18, 2-Methylimidazo[1,5-a]pyrido[3′,2′:4,5]pyrrolo[2,3-c]pyrrolo[3,4-e]-Pyridine-1,3(2H,8H)-dione]	304 to 307	
O=C1NC(=O)c2c1c1c3cc(OCc4ccccc4)ccc3[nH]c1c1cccn21 [Example 3, 11-(Benzyloxy)pyrrolo[3′,4′:5,6]indolizino[8,7-b]indole-1,3(2H,8H)-dione]	275	
